Tests used:
[1] = test system: adult intact mouse hearts; assay: Gain of function model: Tβ4 administration to intact adult mice (western, immunofluorescence, perfused vessel counts); assay type: in vivo
Method: For in vivo studies, Western blotting, immunofluorescence and immunohistochemistry were performed using standard protocols with the following antibodies: Ki67 (Dako Cytomation), SMαA, sarcomeric α-actinin (Sigma), cardiac myosin binding protein C (E. Ehler), CD31/PECAM-1, CD4, CD8b (all BD Pharmingen), Nkx2.5, VEGF, Tie-2 (all Santa Cruz), GAPDH, Tbx18 (both Chemicon), Isl-1 (clone 39.4D5, Developmental Studies Hybridoma Bank), Tbx18, TNFα, IL-6, IL-10, GFP (full length—detects EYFP), MCP1, cTnT, F4/80, CD45, MPO, (all abcam), Living colours Av peptide, polyclonal and mouse monoclonal JL-8 antibodies (detect EYFP, Clontech) Cx43 (Zymed) and Raldh2 (gift of P. McCaffery). Images were acquired using either a Zeiss Axiolmager with ApoTome or a Zeiss LSM 510 confocal microscope equipped with argon and helium neon lasers using a 63×/1.4 lens.
Wild type (WT) C57B1/6 or Cx40-EGFP [46] male mice (25-30 g) received intraperitoneal injection of Tβ4 (150 μg in 0.1 ml PBS) or vehicle (0.1 ml PBS) every 2 days for up to 1 week or every 3 days for up to 4 weeks. Doses were based on previous studies. WT hearts were harvested after 2, 4, 7, 14 and 28 days and bisected transversely; the apex was snap frozen for protein preparation and the remaining tissue was fixed in 4% PFA for 2 hours for cryosectioning. Cx40-EGFP hearts were harvested after 7, 14 and 28 days and fixed, as above, for cryosectioning. Prior to harvest at the 28 d time point, Cx40-EGFP mice were intravenously injected with rhodamine-conjugated dextran (70 kDa, Invitrogen) at 2 mg per 20 g body weight, to assess coronary vessel perfusion.
The minimum requirement for Tβ4 to promote EPDC-derived vascular endothelial and smooth muscle cells, was reported previously. To investigate whether Tβ4 could stimulate new vessel growth in vivo, we established a gain of function mouse model by intraperitoneal injection of Tβ4 or vehicle (injections of 150 μg in 0.1 ml PBS every 2 days for first 4 days and every 3 days thereafter) into wild type 8 week old adult mice. Hearts were examined by western analysis and immunohistochemistry (IHC) for vascular markers and evidence of new coronaries at 2, 4, 7, 14 and 28 days post-treatment.
We next determined the presence of adult EPDC-derived cardiomyocytes in vivo, in both a gain of function (intact heart) mouse model, established by intraperitoneal injection of Tβ4 or vehicle (PBS) into wild type adult mice, and an injury model of myocardial infarctions (by coronary artery ligation) in adult mice (n=27 MIs in total), treated with either Tβ4

infarcted mouse hearts = assay: Myocardial infarction model (coronary artery ligation) treated with Tβ4 or vehicle; assay type: in vivo
Method: For in vivo studies, Western blotting, immunofluorescence and immunohistochemistry were performed using standard protocols with the following antibodies: Ki67 (Dako Cytomation), SMαA, sarcomeric α-actinin (Sigma), cardiac myosin binding protein […]-1, CD4, CD8b (all BD Pharmingen), Nkx2.5, VEGF, Tie-2 (all Santa Cruz), GAPDH, Tbx18 (both Chemicon), Isl-1 (clone 39.4D5, Developmental Studies Hybridoma Bank), Tbx18, TNFα, IL-6, IL-10, GFP (full length-detects EYFP), MCP1, cTnT, F4/80, CD45, MPO, (all abcam), Living colours Av peptide, polyclonal and mouse monoclonal JL-8 antibodies (detect EYFP, Clontech) Cx43 (Zymed) and Raldh2 (gift of P. McCaffery). Images were acquired using either a Zeiss Axiolmager with ApoTome or a Zeiss LSM 510 confocal microscope equipped with argon and helium neon lasers using a 63×/1.4 lens. Adult heart samples post myocardial infarction (MI) were kindly provided by James Clark, Cardiovascular Division, King's College London, St. Thomas' Hospital. Briefly, MI was induced in anaesthetised C57B1/6 male mice by ligation of the left anterior descending coronary artery for 30 minutes, followed by reperfusion. Animals were sacrificed one hour, one day or one week post MI and protein extracts prepared in Laemmli buffer for Western blotting and immunoassay to determine levels of Tβ4 and AcSDKP, respectively. For in vivo studies, one hour after recovery, animals received intraperitoneal injection of Tβ4 (150 μg in 0.1 ml PBS) or vehicle (0.1 ml PBS) as previously reported. Further injections were given after 2 and 4 days and hearts were harvested after 2, 4 and 7 days following ligation and prepared for western analysis and histological sectioning, as described above. Infarcts with equivalent extent of injury in the left ventricle were assessed for immunofluorescence and cell counts. […] We next determined the presence of adult EPDC-derived cardiomyocytes in vivo, in both a gain of function (intact heart) mouse model, established by intraperitoneal injection of Tβ4 or vehicle (PBS) into wild type adult mice, and an injury model of myocardial infarctions (by coronary artery ligation) in adult mice (n=27 MIs in total), treated with either Tβ4 (n=13) or vehicle (n=14, injection regimen as for gain of function; refer to Methods). Hearts were assessed using a combination of western and immunofluorescence analyses for myocardial markers after 2, 4, 7, 14 and 28 days for the gain of function model and 2, 4 and 7 days for the injury model.

[2] = intact heart, 2 days of treatment
[3] = intact heart, days 2-7 of treatment, 150 μg i.p.
[4] = infarcted hearts, 2 days of treatment, n=3, 35 fields

With Thymosin β4 [Tβ4] the “increase in numbers of perfused coronary vessels vs controls” value ([1]; Cx40-EGFP mice, rhodamine-dextran, 28 days of treatment) was 1.2 fold, the “number of perfused vessels per section +/−SEM” value ([1]; Cx40-EGFP mice, rhodamine-dextran, 28 days of treatment, n=3) was 70.7+/−3.62 and the “Raldh2 up-regulation vs vehicle (western)” value ([1]; gain of function, intact heart) was 6.3 fold. The “Tbx18 up-regulation vs vehicle (western)” value ([1]; gain of function, intact heart) was 5.3 fold, the “phospho-histone H3 (P-HH3) elevated levels (proliferation)” value ([1]; intact heart) was 9.1 fold and the “PECAM increase vs controls (western)” value [1, 2] was 9.3 fold. The “SMαA increase vs controls (western)” value [1, 2] was 9.8 fold, the “Tie2 increase vs controls (western)” value [1, 2] was 2 fold and the “VEGF increase vs controls (western)” value [1, 2] was 4.8 fold. For the same substance, the “Isl-1 up-regulation vs vehicle (western)” value [1, 3] was 4.3 fold, the “Nkx2.5 up-regulation vs vehicle (western)” value [1, 3] was 2.7 fold and the “TNF-α reduction vs vehicle (western)” value (infarcted mouse hearts; 2 days of treatment post-MI) was 6.2 fold. The “IL-10 increase compared to control (western)” value (infarcted mouse hearts; 2 days post-MI) was 8.1 fold, the “infarct area (Image J)” value (infarcted mouse hearts; 2 days post-MI, section through left ventricle wall) was 0.292 mm^2 and the “increase in vessel area vs control (Image J)” value (infarcted mouse hearts; 7 days of treatment post-MI) was 2 fold. For the same substance, the vessel area/field (infarcted mouse hearts; 7 days of treatment post-MI, n=7) was 10.67+/−0.55%, the “scar volume vs vehicle (trichrome)” value (infarcted mouse hearts; 7 days post MI) was “reduced scar volume” and the “epicardial fibrosis, share of the epicardium affected” value (infarcted mouse hearts; 7 days post MI, trichrome) was ≤ 20%. For the same substance, the “EPDC-derived (EYFP+) cardiomyocytes, % of total cardiomyocytes per field” value (infarcted mouse hearts; Gata5-EYFP mice, 7 days treatment post-MI) was 14.1%, the “EYFP+ cardiomyocytes, mean number of positive cells/field +/−SEM” value (infarcted mouse hearts; Gata5-EYFP mice, 7 days treatment post-MI, n=6, 38 fields) was 49.53+/−4.68 cells/field and the “Raldh2 up-regulation vs vehicle (western)” value (infarcted mouse hearts; d2 MI) was 1.8 fold. For the same substance, the “Tbx18 up-regulation vs vehicle (western)” value (infarcted mouse hearts; d2 MI) was 2.8 fold, the “infiltration of MPO+ neutrophils vs controls” value (infarcted mouse hearts; d2 and d4 post-MI) was “reduced infiltration” and the “macrophages (F4/80+) vs vehicle” value (infarcted mouse hearts; d2 post MI) was “elevated”. For the same substance, the “CD4:CD8 ratio” value (infarcted mouse hearts; d4 post-MI) was 7.4, the “CD4:CD8 ratio” value (infarcted mouse hearts; d7 post-MI) was 10.8 and the “PECAM protein expression increase (western)” value (infarcted mouse hearts; d7 post-MI) was 9.6 fold. For the same substance, the “SMαA protein expression increase (western)” value (infarcted mouse hearts; d7 post-MI) was 8.3 fold, the “macrophages (F4/80+) vs vehicle” value (infarcted mouse hearts; d7 post-MI) was “reduced” and the “fibroblast number (EYFP+/procollagen type I) vs control” value (infarcted mouse hearts; d7 post-MI, p=0.57) was “did not vary significantly”. For the same substance, the “EYFP+ cardiomyocytes located in remote myocardium, % of total EYFP+ cardiomyocytes per field” value (infarcted mouse hearts; day 7 post-MI, left ventricle) was 40%, the “EYFP+ cardiomyocytes proximal to the border zone, % of total EYFP+ cardiomyocytes per field” value (infarcted mouse hearts; day 7 post-MI, left ventricle) was 58% and the “IL-6 reduction vs vehicle (western)” value (infarcted mouse hearts; early stages post-MI) was 4.1 fold. The “MCP-1 up-regulation (western)” value (infarcted mouse hearts; early, d2 post-MI) was 3.9 fold, the “proliferation of cells (Ki67) within the epicardium and subepicardial space” value (infarcted mouse hearts; following MI) was “increase in proliferation” and the “Isl1 elevated levels (western)” value (infarcted mouse hearts; from 2 days post-MI onwards) was 5.1 fold. For the same substance, the “Nkx2.5 elevated levels (western)” value (infarcted mouse hearts; from 2 days post-MI onwards) was 1.9 fold, the “Raldh2+ mean number of positive cells per field +/−SEM” value (infarcted mouse hearts; [4]) was 41.8+/−1.9 cells per field and the “Tbx18+ mean number of positive cells per field +/−SEM” value (infarcted mouse hearts; [4]) was 36.1+/−3.1 cells per field. The “increase in number of endothelial (PECAM+) cells vs vehicle” value (infarcted mouse hearts; infarcted hearts, 4 days) was 3.5 fold, the “PECAM+ number of cells per field +/−SEM” value (infarcted mouse hearts; infarcted hearts, 4 days, n=3) was 150.33+/−10.94 cells per field and the “MCP-1 levels (in words)” value (infarcted mouse hearts; initial stages post-MI) was “significantly reduced levels”. The “levels of MMP3 and -9” value (infarcted mouse hearts; post MI) was “reduced levels”, the “levels of TIMP1 and -2” value (infarcted mouse hearts; post MI) was “without an effect” and the “P-NFκB positive cells at the infarct border zone” value (infarcted mouse hearts; post-MI, immunostaining) was “reduced number”.

— patent US20090081170A1, “Cardiac progenitor cells” (priority 2007, published 2009)
